In US10421774B2 (priority 2016, dated 2019):
Where two headings read alike, the source gives them in different places.

Experiments:
Assay in all cases: microbe, parasite or virus in culture
Format in all cases: cell-based, HIV-1
[1] = tested on: NLRepRlucP373S recombinant wild type (WT) virus
How it was run: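 Multiple-cycle assay: luciferase-normalized NL4-3-derived NLRepRlucP373S (Renilla luciferase in place of nef) infects MT-2 cells, 10,000 cells/well, with 3-fold compound dilutions at 1% DMSO, 4-5 days, 37 °C. EC50 and EC90 fitted by median effect equation against Renilla luminescence, with residual signal under 3 μM NFV as background.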

[2] = tested on: T332S/V362I/Pr R41G virus; settings: for EC50: Human immunodeficiency virus 1, MT2, read-out: T332S/V362I/pr41G EC50
How it was run: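 Multiple-cycle susceptibility: MT-2 cells, 10,000 per well, exposed to 3-fold compound dilutions at 1% DMSO after infection with luciferase-normalized inoculum. Virus: NL4-3-derived Renilla reporter (Gag P373S) with Gag T332S/V362I and protease R41G. Readout Renilla luciferase after 4–5 days, 37 °C.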

gag V370A/ΔT371 virus = settings: for EC50: Human immunodeficiency virus 1, MT2, read-out: V370A/ΔT371 EC50
How it was run: (§1)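 Virus yield quantified by Renilla luciferase after 4–5 day culture at 37°C of MT-2 cells (10,000/well) with 3-fold serially diluted compound at 1% final DMSO. Reporter viruses were NL4-3 P373S derivatives bearing Gag A364V or V370A/ΔT371, inputs matched on luciferase endpoint.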

[3] = tested on: A364V site directed mutant virus; settings: for EC50: Human immunodeficiency virus 1, MT2, read-out: A364V EC50
How it was run: as §1

[4] = Human immunodeficiency virus 1, MT2, read-out: WT EC50

SMILES	EC50 [1, 4] [nM]	EC50 [2] [nM]	EC50 (gag V370A/ΔT371 virus) [nM]	EC50 [3] [nM]	EC50 ([1]; Human immunodeficiency virus 1, read-out: WT EC50) [nM]	EC90 ([2]; Human immunodeficiency virus 1, read-out: T332S/V362I/prR41G EC90) [nM]	EC90 (gag V370A/ΔT371 virus; Human immunodeficiency virus 1, read-out: V370A/ΔT371 EC90) [nM]	EC90 ([3]; Human immunodeficiency virus 1, read-out: A364V EC90) [nM]
C=C(C)[C@@H]1CC[C@]2(NCCC3(O)CCS(=O)(=O)CC3)CC[C@]3(C)[C@H](CC[C@@H]4[C@@]5(C)CC=C(C6=CCC(COc7ccccn7)(C(=O)O)CC6)C(C)(C)[C@@H]5CC[C@]43C)[C@@H]12 (stereo partly drawn) [Example 33, 4-((1R,3aS,5aR,5bR,7aR,11aS,11bR,13aR,13bR)-3a-((2-(4-hydroxy-1,1-dioxidotetrahydro-2H-thiopyran-4-yl)ethyl)amino)-5a,5b,8,8,11a-pentamethyl-1-(prop-1-en-2-yl)-2,3,3a,4,5,5a,5b,6,7,7a,8,11,11a,11b,12,13,13a,13b-octadecahydro-1H-cyclopenta[a]chrysen-9-yl)-1-((pyridin-2-yloxy)methyl)cyclohex-3-ene-1-carboxylic acid]	5	< 50	< 50	16	–	–	–	–
C=C(C)[C@@H]1CC[C@]2(NCCN3CCS(=O)(=O)CC3)CC[C@]3(C)[C@H](CC[C@@H]4[C@@]5(C)CC=C(C6=CCC(COc7ncccn7)(C(=O)O)CC6)C(C)(C)[C@@H]5CC[C@]43C)[C@@H]12 (stereo partly drawn) [Example 34]	2	13	13	< 50	–	–	–	–
C=C(C)[C@@H]1CC[C@]2(NCCN3CCS(=O)(=O)CC3)CC[C@]3(C)[C@H](CC[C@@H]4[C@@]5(C)CC=C(C6=CCC(COc7nccc8ccc(OC)cc78)(C(=O)O)CC6)C(C)(C)[C@@H]5CC[C@]43C)[C@@H]12 (stereo partly drawn) [Example 35, 4-((1R,3aS,5aR,5bR,7aR,11aS,11bR,13aR,13bR)-3a-((2-(1,1-dioxidothiomorpholino)ethyl)amino)-5a,5b,8,8,11a-pentamethyl-1-(prop-1-en-2-yl)-2,3,3a,4,5,5a,5b,6,7,7a,8,11,11a,11 b,12,13,13a,13b-octadecahydro-1H-cyclopenta[a]chrysen-9-yl)-1-(((7-methoxyisoquinolin-1-yl)oxy)methyl)cyclohex-3-ene-1-carboxylic acid]	7	> 50	> 50	24	–	–	–	–
C=C(C)[C@@H]1CC[C@]2(NCCN3CCS(=O)(=O)CC3)CC[C@]3(C)[C@H](CC[C@@H]4[C@@]5(C)CC=C(C6=CCC(COc7ncccc7C#N)(C(=O)O)CC6)C(C)(C)[C@@H]5CC[C@]43C)[C@@H]12 (stereo partly drawn) [Example 36, 1-(((3-cyanopyridin-2-yl)oxy)methyl)-4-((1R,3aS,5aR,5bR,7aR,11aS,11bR,13aR,13bR)-3a-((2-(1,1-dioxidothiomorpholino)ethyl)amino)-5a,5b,8,8,11a-pentamethyl-1-(prop-1-en-2-yl)-2,3,3a,4,5,5a,5b,6,7,7a,8,11,11a,11b,12,13,13a,13b-octadecahydro-1H-cyclopenta[a]chrysen-9-yl)cyclohex-3-ene-1-carboxylic acid]	3	11	11	5	–	–	–	–
C=C(C)[C@@H]1CC[C@]2(NCCN3CCS(=O)(=O)CC3)CC[C@]3(C)[C@H](CC[C@@H]4[C@@]5(C)CC=C(C6=CCC(COc7cc(C#N)ccn7)(C(=O)O)CC6)C(C)(C)[C@@H]5CC[C@]43C)[C@@H]12 (stereo partly drawn) [Example 37, 1-(((4-cyanopyridin-2-yl)oxy)methyl)-4-((1R,3aS,5aR,5bR,7aR,11aS,11bR,13aR,13bR)-3a-((2-(1,1-dioxidothiomorpholino)ethyl)amino)-5a,5b,8,8,11a-pentamethyl-1-(prop-1-en-2-yl)-2,3,3a,4,5,5a,5b,6,7,7a,8,11,11a,11b,12,13,13a,13b-octadecahydro-1H-cyclopenta[a]chrysen-9-yl)cyclohex-3-ene-1-carboxylic acid]	< 50	> 50	> 50	> 50	–	–	–	–
C=C(C)[C@@H]1CC[C@]2(NCCN3CCS(=O)(=O)CC3)CC[C@]3(C)[C@H](CC[C@@H]4[C@@]5(C)CC=C(C6=CCC(COc7ccc(C#N)cn7)(C(=O)O)CC6)C(C)(C)[C@@H]5CC[C@]43C)[C@@H]12 (stereo partly drawn) [Example 38, 1-(((5-cyanopyridin-2-yl)oxy)methyl)-4-((1R,3aS,5aR,5bR,7aR,11aS,11bR,13aR,13bR)-3a-((2-(1,1-dioxidothiomorpholino)ethyl)amino)-5a,5b,8,8,11a-pentamethyl-1-(prop-1-en-2-yl)-2,3,3a,4,5,5a,5b,6,7,7a,8,11,11a,11b,12,13,13a,13b-octadecahydro-1H-cyclopenta[a]chrysen-9-yl)cyclohex-3-ene-1-carboxylic acid]	2	232	232	29	–	–	–	–
C=C(C)[C@@H]1CC[C@]2(NCCN3CCS(=O)(=O)CC3)CC[C@]3(C)[C@H](CC[C@@H]4[C@@]5(C)CC=C(C6=CCC(COc7cccc(C#N)n7)(C(=O)O)CC6)C(C)(C)[C@@H]5CC[C@]43C)[C@@H]12 (stereo partly drawn) [Example 39, 1-(((6-cyanopyridin-2-yl)oxy)methyl)-4-((1R,3aS,5aR,5bR,7aR,11aS,11bR,13aR,13bR)-3a-((2-(1,1-dioxidothiomorpholino)ethyl)amino)-5a,5b,8,8,11a-pentamethyl-1-(prop-1-en-2-yl)-2,3,3a,4,5,5a,5b,6,7,7a,8,11,11a,11b,12,13,13a,13b-octadecahydro-1H-cyclopenta[a]chrysen-9-yl)cyclohex-3-ene-1-carboxylic acid]	14	> 50	> 50	< 50	–	–	–	–
C=C(C)[C@@H]1CC[C@]2(NCCN3CCS(=O)(=O)CC3)CC[C@]3(C)[C@H](CC[C@@H]4[C@@]5(C)CC=C(C6=CCC(COc7cccc(C(N)=O)n7)(C(=O)O)CC6)C(C)(C)[C@@H]5CC[C@]43C)[C@@H]12 (stereo partly drawn) [Example 40, 1-(((6-carbamoylpyridin-2-yl)oxy)methyl)-4-((1R,3aS,5aR,5bR,7aR,11aS,11bR,13aR,13bR)-3a-((2-(1,1-dioxidothiomorpholino)ethyl)amino)-5a,5b,8,8,11a-pentamethyl-1-(prop-1-en-2-yl)-2,3,3a,4,5,5a,5b,6,7,7a,8,11,11a,11b,12,13,13a,13b-octadecahydro-1H-cyclopenta[a]chrysen-9-yl)cyclohex-3-ene-1-carboxylic acid]	4	233	233	271	–	–	–	–
C=C(C)[C@@H]1CC[C@]2(NCC[C@]3(O)CC[C@@H](S(C)(=O)=O)CC3)CC[C@]3(C)[C@H](CC[C@@H]4[C@@]5(C)CC=C(C6=CCC(COc7ccccn7)(C(=O)O)CC6)C(C)(C)[C@@H]5CC[C@]43C)[C@@H]12 (stereo partly drawn) [Example A1, 4-((1R,3aS,5aR,5bR,7aR,11aS,11bR,13aR,13bR)-3a-((2-((1s,4R)-1-hydroxy-4-(methylsulfonyl)cyclohexyl)ethyl)amino)-5a,5b,8,8,11a-pentamethyl-1-(prop-1-en-2-yl)-2,3,3a,4,5,5a,5b,6,7,7a,8,11,11a,11 b,12,13,13a,13b-octadecahydro-1H-cyclopenta[a]chrysen-9-yl)-1-((pyridin-2-yloxy)methyl)cyclohex-3-enecarboxylic acid]	5	26	26	9	–	–	–	–
C=C(C)[C@@H]1CC[C@]2(NCC[C@]3(O)CC[C@H](S(C)(=O)=O)CC3)CC[C@]3(C)[C@H](CC[C@@H]4[C@@]5(C)CC=C(C6=CCC(COc7ccccn7)(C(=O)O)CC6)C(C)(C)[C@@H]5CC[C@]43C)[C@@H]12 (stereo partly drawn) [Example A2, 4-((1R,3aS,5aR,5bR,7aR,11aS,11bR,13aR,13bR)-3a-((2-((1r,4S)-1-hydroxy-4-(methylsulfonyl)cyclohexyl)ethyl)amino)-5a,5b,8,8,11a-pentamethyl-1-(prop-1-en-2-yl)-2,3,3a,4,5,5a,5b,6,7,7a,8,11,11a,11 b,12,13,13a,13b-octadecahydro-1H-cyclopenta[a]chrysen-9-yl)-1-((pyridin-2-yloxy)methyl)cyclohex-3-enecarboxylic acid]	1	8	8	14	–	–	–	–
C=C(C)[C@@H]1CC[C@]2(NCC[C@]3(O)CC[C@@H](S(C)(=O)=O)CC3)CC[C@]3(C)[C@H](CC[C@@H]4[C@@]5(C)CC=C(C6=CC[C@@](COc7ncccc7C#N)(C(=O)O)CC6)C(C)(C)[C@@H]5CC[C@]43C)[C@@H]12 [Example A3, (S)-1-(((3-cyanopyridin-2-yl)oxy)methyl)-4-((1R,3aS,5aR,5bR,7aR,11aS,11bR,13aR,13bR)-3a-((2-((1s,4R)-1-hydroxy-4-(methylsulfonyl)cyclohexyl)ethyl)amino)-5a,5b,8,8,11a-pentamethyl-1-(prop-1-en-2-yl)-2,3,3a,4,5,5a,5b,6,7,7a,8,11,11a,11b,12,13,13a,13b-octadecahydro-1H-cyclopenta[a]chrysen-9-yl)cyclohex-3-enecarboxylic acid]	4	5	5	11	4	17	15	166
